Key:
[1] = test system: seasonal allergic rhinitis; details: oral, 2600 mg to 5200 mg per day; cited from earlier work
osteoarthritis = details: literature study; cited from earlier work
murine macrophages = details: in vitro; cited from earlier work
psoriasis = test: Summary of treatments: Psoriasis; type: in vivo, human; design: key: The + values in the table represent a qualitative assessment of the treatment of symptoms in the patient groups tests; ++: The + values in the table represent a qualitative assessment of the treatment of symptoms in the patient groups tests; +++: The + values in the table represent a qualitative assessment of the treatment of symptoms in the patient groups tests; ++++: The + values in the table represent a qualitative assessment of the treatment of symptoms in the patient groups tests; +++++: 5+ indicating the greatest improvement in symptoms; details: patient groups
Solar Keratosis = test: Summary of treatments: Solar Keratosis; type: in vivo, human; design: key: The + values in the table represent a qualitative assessment of the treatment of symptoms in the patient groups tests; ++: The + values in the table represent a qualitative assessment of the treatment of symptoms in the patient groups tests; +++: The + values in the table represent a qualitative assessment of the treatment of symptoms in the patient groups tests; ++++: The + values in the table represent a qualitative assessment of the treatment of symptoms in the patient groups tests; +++++: 5+ indicating the greatest improvement in symptoms; details: patient groups
chondrocytes = details: in vitro; cited from earlier work
TNF-α production = details: in vitro; cited from earlier work

CS(C)(=O)=O [MSM, Methylsulphonylmethane]
symptoms associated with seasonal allergic rhinitis [1]: may reduce symptoms
effect in osteoarthritis (osteoarthritis): analgesic and anti-inflammatory effect
effect in murine macrophages (release of pro-inflammatory cytokines) (murine macrophages): anti-inflammatory effect

NC(=O)c1cccnc1 [Nicotinamide oral (NC), nicotinamide]
qualitative assessment of the treatment of symptoms: Psoriasis (psoriasis): +
qualitative assessment of the treatment of symptoms: Solar Keratosis (Solar Keratosis): +

N[C@H]1C(O)O[C@H](CO)[C@@H](O)[C@@H]1O (some centres unmarked) [glucosamine]
effect in osteoarthritis (osteoarthritis): may improve the symptoms
synthesis of proinflammatory mediators in chondrocytes (chondrocytes): inhibits the synthesis of proinflammatory mediators

NCC(=O)O [glycine]
immunomodulatory action, possibly by inhibiting TNF-α production (TNF-α production): immunomodulatory action
